These results are taken from US20030040436A1 (priority 2000, published 2003).

For series [1], the system named is Phormidium algae. Put plainly: Filter paper assay of algicidal activity. It counts as cell-based. The settings on record: for Zone of Inhibition: observed 4 days after start. The text has this:
Briefly, the filter paper assay is designed to approximate an environment such as that found on a golf course, where algal pests can be particularly damaging. Blended fragment suspensions of Phormidium algae were passed through a coarse Whatman filter paper circle to collect the algal cells. The filter paper was then placed in a large Petri dish containing moist sand. The desired concentration of 10% benzyl benzoate formulation (0.8, 0.3 and 0.1% (w/v) final concentration) was placed on marked areas of the algae field to determine toxic effects. Observations were made 4 days after the test was initiated and were compared to control experiments using the known pesticide Daconil.

In series [2] the test system is Tiffway hybrid bermudagrass and SR1020 bentgrass. The series can be described thus: Phytotoxic field testing on grass test surfaces. In kind it is in vivo. The settings on record: highest concentration (0.8% w/v), one square foot test surfaces. The text has this: This formulation was applied to two grass species, Tiffway hybrid bermudagrass and SR1020 bentgrass. One square foot test surfaces of each grass type were used. The test formulation was applied to test surfaces in dilutions corresponding to 0.8, 0.3, and 0.1% (w/v) benzyl benzoate.

For series [3], the system named is Phormidium algae. Put plainly: Field test, spray application: control of algae on turfgrass. In kind it is in vivo. The settings on record: single spray application, several days following. The text has this:
(§1) Each of the three concentrations and negative controls without benzyl benzoate were applied to one square foot of SRI 020 bentgrass or Tiffway hybrid bermudagrass, which was naturally infected with Phormidiumalgae, with a single spray application. The turfgrass was examined empirically for control of the algae as well and toxicity to the grass.

The test system of series [4] is SRI 020 bentgrass or Tiffway hybrid bermudagrass. Put plainly: Field test, spray application: toxicity to the grass. It counts as in vivo, SRI 020 bentgrass; Tiffway hybrid bermudagrass. The settings on record: all concentrations tested (0.8, 0.3, 0.1% w/v), single spray application.
Text: as §1

In series [5] the test system is Phormidium algae. The series can be described thus: Well-plate assay of algicidal activity. The settings on record: for Lethality: 24 hours under fluorescent light.
Description: Liquid cultures of Phormidiumalgae were homogenized into individual cells in a standard laboratory blender apparatus. One hundred fifty μl of the homogenized algal suspension were added to the wells of 96-well assay plates using multitip-transfer pipettes. To each well, 150 μl of various dilutions of the test formulation were added, such that final concentrations of bcnzyl benzoate in the test wells were 0.8%, 0.3%, and 0.1%. The plates were allowed to incubation under fluorescent light for 24 hours.
For a further series, the system named is moss. The series can be described thus: Control of moss on greenhouse wall and ground. To be noted: 5% (w/v), sprayed to run-off, one application, within 24 hours.

With `O=C(OCc1ccccc1)c1ccccc1` [benzyl benzoate], the “Zone of Inhibition” value in the series on Phormidium algae [1] (0.1% (w/v) benzyl benzoate) is given as “no”; in the series with Phormidium algae [1] (0.3% (w/v) benzyl benzoate) it was “yes”; in the series with Phormidium algae [1] (0.8% (w/v) benzyl benzoate), “yes”. The “killing Phormidium” value with Phormidium algae [1] (0.3% (w/v) benzyl benzoate) and in the series with Phormidium algae [1] (0.8% (w/v) benzyl benzoate) was “very effective” throughout. The phytotoxicity result in series [2] was “Only small signs of phytotoxicity”. For the same compound, the results for the algae control entry in the series on Phormidium algae [3] (0.3% (w/v)) and with Phormidium algae [3] (0.8% (w/v)) were “significant level of control” and “most effective algae control”, respectively. Also, the “phytotoxic effect (chemical burn) on the two grass species” value in series [4] is “minimal phytotoxic effect”. The “Comments (efficacy compared to Daconil)” value with Phormidium algae [5] (0.1% benzyl benzoate) is listed as “Same efficacy as”; with Phormidium algae [5] (0.3% benzyl benzoate), “Superior to Daconil”; in the series with Phormidium algae [5] (0.8% benzyl benzoate), “Superior to Daconil”. The results for the Lethality result in the series with Phormidium algae [5] (0.1% benzyl benzoate final concentration), with Phormidium algae [5] (0.3% benzyl benzoate final concentration) and with Phormidium algae [5] (0.8% benzyl benzoate final concentration) were “no”, “yes” and “yes”, respectively.
Consider `O=C(OCc1ccccc1)c1ccccc1O` [benzyl salicylate], for which the phytotoxicity to moss entry in the series on moss is recorded as “phytotoxic to moss”.
The same measure, in the same setting: the value for `CCCCCCC(C=O)=Cc1ccccc1` [HCA, α-hexyl cinnamic aldehyde, reference compound] was “phytotoxic to moss”.
